For this test, the system named is clonic seizures caused by pentylenetetrazole. The test is described as follows: Protection against clonic seizures caused by pentylenetetrazole in rats (oral). In kind it is in vivo. The following applies: Rattus norvegicus, rats (at least 5 per group), 2% starch vehicle, pentylenetetrazole 21 to 23 mg./kg. intravenously at estimated time of peak effect, protection of 50% of animals, read-out: MEDIAN EFFECTIVE ORAL DOSE ED50. The protocol: The anti-anxiety properties of the compounds of the present invention have been established in a test which indicates anxiolytic activity by a measure of protection from convulsions resulting from the administration of pentylenetetrazole. Graded dose levels of the compounds of this invention are administered orally, in a 2% starch vehicle, to groups of at least 5 rats. At the estimated time of peak effect, the rats are treated intravenously with pentylenetetrazole at a dose of 21 to 23 mg./kg. of body weight. This dose is estimated to cause clonic seizures in 99% of unprotected rats. The effective dose of the test compound for protection of 50% of the animals is calculated by the method of D. H. Finney in Statistical Methods in Biological Assay, Second Edition, Hafner Publishing Co., New York, 1964, pp. 456- 457. Representative results are given in the table which follows in comparison with Librium (chlordiazepoxide) or Valium (diazepam), all of which were tested in exactly the same manner. It has been reported [R. T. Hill and D. H. Tedeschi, "Animal Testing and Screening Procedures in Evaluating Psychotropic Drugs" in An Introduction to Psychopharmacology, Eds. R. R. Rech and K. E. Moore, Raven Press, New York, pp. 237-288 (1971)] that there is a high degree of correlation between antagonism of pentylenetetrazole seizures in rats and antianxiety effects in higher warm-blooded animals.

Counter-ions that a name gives are not always drawn.

A word on the ED50: it is the dose that gives a 50% effect, or the effect in half of the subjects.

For `Cc1ccc2c(c1)CN1CCC[C@H]1C(=O)N2C` [Dextro 7,10-dimethyl-1,2,3,5,10,11a-hexahydro-11H-pyrrolo[2,1-c][1,4]benzodiazepin-11-one hydrochloride], the ED50 was 32 mg/kg.

For `CN1C(=O)[C@@H]2CCCN2Cc2ccccc21` [Dextro 1,2,3,5,10,11a-hexahydro-10-methyl-11H-pyrrolo[2,1-c][1,4]-benzodiazepin-11-one hydrochloride], the ED50 was 15 mg/kg. `CNC1=Nc2ccc(Cl)cc2C(c2ccccc2)=[N+]([O-])C1` [Librium (chlordiazepoxide), chlordiazepoxide, reference compound]: the ED50 is 2.5 mg/kg.

For `CN1C(=O)C2CCCN2Cc2ccccc21` (racemic) [Racemic 1,2,3,5,10,11a-hexahydro-10-methyl-11H-pyrrolo[2,1-c][1,4]benzodiazepin-11-one hydrochloride], the ED50 was 66 mg/kg. As for `CN1C(=O)[C@@H]2CCCN2Cc2cc(Cl)ccc21` [Dextro 7-chloro-1,2,3,5,10,11a-hexahydro-10-methyl-11H-pyrrolo[2,1-c][1,4]benzodiazepin-11-one hydrochloride], the ED50 is 80 mg/kg. With `CN1C(=O)CN=C(c2ccccc2)c2cc(Cl)ccc21` [Valium (diazepam), diazepam, reference compound], the median effective dose (ED50) was 1.8 mg/kg. `CN1C(=O)C2CCCN2Cc2cc(Cl)ccc21` (racemic) [Racemic 7-chloro-1,2,3,5,10,11a-hexahydro-10-methyl-11H-pyrrolo[2,1-c][1,4]benzodiazepin-11-one hydrochloride]: the median effective dose (ED50) was 91 mg/kg.

The values above are taken from patent US3947408A, “Pyrrolo-benzodiazepines, method of preparation and method of use” (American Cyanamid Company, priority 1974, dated 1976).
